The test system of the experiment is BDF1 mice, P388 leukemia ip, median survival T/C. Kind of experiment: NCI In Vivo Anticancer Drug Screen. Data for tumor model P388 Leukemia (intraperitoneal) in B6D2F1 (BDF1) mice. To be noted: endpoint: median survival time, higher = longer survival. The method, boiled down: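 Compound-treated tumour-bearing mice were compared with vehicle-treated controls. Survival was recorded, and the value is the treated-group measurement divided by the control-group measurement (T/C).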

Setting [1] is: dose: 100.0 mg/kg/injection, schedule: Q01DX009 (ip), vehicle: saline with Tween-80.
[2] abbreviates: dose: 400.0 mg/kg/injection, schedule: Q01DX009 (ip), vehicle: saline with Tween-80.
Setting [3] is: dose: 100.0 mg/kg/injection, schedule: Q01DX009 (ip), vehicle: Klucel (hydroxypropylcellulose) (HPC).
[4] abbreviates: dose: 100.0 mg/kg/injection, schedule: Q04DX003 (ip), vehicle: Klucel (hydroxypropylcellulose) (HPC).
Where [5] appears, read: dose: 50.0 mg/kg/injection, schedule: Q01DX009 (ip), vehicle: saline with Tween-80.
[6] abbreviates: dose: 200.0 mg/kg/injection, schedule: Q01DX009 (ip), vehicle: saline with Tween-80.
Where [7] appears, read: dose: 100.0 mg/kg/injection, schedule: Q04DX003 (ip), vehicle: saline with Tween-80.
The mark [8] stands for this setting: dose: 200.0 mg/kg/injection, schedule: Q04DX003 (ip), vehicle: saline with Tween-80.
[9] abbreviates: dose: 400.0 mg/kg/injection, schedule: Q04DX003 (ip), vehicle: saline with Tween-80.
Where [10] appears, read: dose: 100.0 mg/kg/injection, schedule: Q01DX009 (ip), vehicle: saline.
Where [11] appears, read: dose: 100.0 mg/kg/injection, schedule: Q04DX003 (ip), vehicle: saline.
Where [12] appears, read: dose: 200.0 mg/kg/injection, schedule: Q01DX009 (ip), vehicle: saline.
[13] abbreviates: dose: 200.0 mg/kg/injection, schedule: Q04DX003 (ip), vehicle: saline.
The mark [14] stands for this setting: dose: 400.0 mg/kg/injection, schedule: Q04DX003 (ip), vehicle: saline.
Setting [15] is: dose: 25.0 mg/kg/injection, schedule: Q01DX009 (ip), vehicle: saline.
The mark [16] stands for this setting: dose: 50.0 mg/kg/injection, schedule: Q01DX009 (ip), vehicle: saline.

The structures appear in SMILES notation. Inconclusive results and toxic doses are left out.

On to `COc1ccc(-c2c(C)c(C(=O)O)nc(-c3ccc4c(O)c(OC)c5c(c4n3)=NC(C)(C)N=5)c2N)c(O)c1OC`, for which the T/C by setting is: (dose: 1.0 mg/kg/injection, schedule: Q01DX010 (ip), vehicle: other) 90 % of control; (dose: 2.0 mg/kg/injection, schedule: Q01DX010 (ip), vehicle: other) 118 % of control; (dose: 4.0 mg/kg/injection, schedule: Q01DX010 (ip), vehicle: other) 118 % of control; (dose: 5.0 mg/kg/injection, schedule: Q01DX010 (ip), vehicle: water) 100 % of control; (dose: 10.0 mg/kg/injection, schedule: Q01DX010 (ip), vehicle: water) 95 % of control.

As to `O=C1c2ccccc2C(=O)c2c(NCCSCCO)ccc(NCCSCCO)c21`, the T/C (dose: 25.0 mg/kg/injection, schedule: Q01DX009 (ip), vehicle: other) is 95 % of control; the T/C (dose: 50.0 mg/kg/injection, schedule: Q01DX009 (ip), vehicle: other) is 86 % of control; the T/C (dose: 100.0 mg/kg/injection, schedule: Q01DX009 (ip), vehicle: other) is 94 % of control.

As to `[Cl][Hg][CH2]CC1CC=CCC1` (stereo unspecified), the T/C (dose: 6.25 mg/kg/injection, schedule: Q01DX009 (ip), vehicle: saline with Tween-80) is 113 % of control; the T/C (dose: 6.25 mg/kg/injection, schedule: Q04DX003 (ip), vehicle: saline sonified) is 104 % of control; the T/C (dose: 12.5 mg/kg/injection, schedule: Q01DX009 (ip), vehicle: saline with Tween-80) is 117 % of control; the T/C (dose: 12.5 mg/kg/injection, schedule: Q04DX003 (ip), vehicle: saline sonified) was 122 % of control; the T/C (dose: 25.0 mg/kg/injection, schedule: Q04DX003 (ip), vehicle: saline sonified) is 118 % of control.

In the case of `Cc1cc(NC(=O)Nc2cccc(C3=NCCN3)c2)ccc1NC(=O)Nc1cccc(C2=NCCN2)c1`, the T/C under setting [1] was 118 % of control and the T/C under setting [2] was 190 % of control.

Turning to `O=[N+]([O-])c1ccc([N+](=O)[O-])c(Cl)c1`, the T/C is, setting by setting: (dose: 12.5 mg/kg/injection, schedule: Q04DX003 (ip), vehicle: saline with Tween-80) 90 % of control; (dose: 25.0 mg/kg/injection, schedule: Q01DX009 (ip), vehicle: Klucel (hydroxypropylcellulose) (HPC)) 100 % of control; (dose: 25.0 mg/kg/injection, schedule: Q04DX003 (ip), vehicle: saline with Tween-80) 109 % of control; (dose: 50.0 mg/kg/injection, schedule: Q01DX009 (ip), vehicle: Klucel (hydroxypropylcellulose) (HPC)) 109 % of control; (dose: 50.0 mg/kg/injection, schedule: Q04DX003 (ip), vehicle: saline with Tween-80) 109 % of control; under setting [3], 118 % of control. Moreover, the T/C by setting is: under setting [4], 109 % of control; (dose: 150.0 mg/kg/injection, schedule: Q01DX009 (ip), vehicle: Klucel (hydroxypropylcellulose) (HPC)) 118 % of control.

Consider `CCc1oc(=O)c(Cc2c(O)cc(O)c3c2OC(c2ccccc2)CC3=O)c(O)c1C` (stereo unspecified), for which the T/C is, setting by setting: (dose: 4.0 mg/kg/injection, schedule: Q01DX009 (ip), vehicle: Klucel (hydroxypropylcellulose) (HPC)) 95 % of control; (dose: 8.0 mg/kg/injection, schedule: Q01DX009 (ip), vehicle: Klucel (hydroxypropylcellulose) (HPC)) 100 % of control; (dose: 16.0 mg/kg/injection, schedule: Q01DX009 (ip), vehicle: Klucel (hydroxypropylcellulose) (HPC)) 93 % of control; (dose: 32.0 mg/kg/injection, schedule: Q01DX009 (ip), vehicle: Klucel (hydroxypropylcellulose) (HPC)) 93 % of control.

`Cc1ncc(CSc2ccccc2N)c(CO)c1O`: the T/C was 91 % of control under setting [5], 92 % of control under setting [1] and 94 % of control under setting [6].

For `C=CCCCCn1c2ccccc2c2c(C)c3cnccc3c(C)c21`, the T/C by setting is: under setting [7], 109 % of control; under setting [8], 100 % of control; under setting [9], 118 % of control.

For `Brc1cnc(OCc2ccccc2)nc1OCc1ccccc1`, the T/C is 103 % of control under setting [1]; 104 % of control under setting [7]; 103 % of control under setting [6]; 104 % of control under setting [8]; 107 % of control under setting [2]; 108 % of control under setting [9].

With `N[C@@H](Cc1ccc(O)c(O)c1)C(=O)O`, the T/C runs as follows: (dose: 50.0 mg/kg/injection, schedule: Q01DX010 (ip), vehicle: saline) 92 % of control; (dose: 100.0 mg/kg/injection, schedule: Q01DX010 (ip), vehicle: saline) 96 % of control; (dose: 200.0 mg/kg/injection, schedule: Q01DX010 (ip), vehicle: saline) 100 % of control; (dose: 400.0 mg/kg/injection, schedule: Q01DX010 (ip), vehicle: saline) 107 % of control.

For the compound `Cc1ccc(-n2nnc3ccccc3c2=O)cc1C`, the T/C is, setting by setting: under setting [10], 109 % of control; under setting [11], 100 % of control; under setting [12], 90 % of control; under setting [13], 104 % of control; (dose: 400.0 mg/kg/injection, schedule: Q01DX009 (ip), vehicle: saline) 113 % of control; under setting [14], 100 % of control.

Take `CC(=O)Nc1nncs1`: the T/C is, setting by setting: (dose: 100.0 mg/kg/injection, schedule: Q01DX009 (ip), vehicle: saline sonified) 113 % of control; (dose: 200.0 mg/kg/injection, schedule: Q01DX009 (ip), vehicle: saline sonified) 109 % of control.

With `O=C(Nc1ccc(Nc2ccncc2)cc1)c1ccc(Nc2ccnc3ccc([N+](=O)[O-])cc23)cc1`, the T/C was 90 % of control under setting [3]; 100 % of control under setting [4]; 90 % of control (dose: 200.0 mg/kg/injection, schedule: Q01DX009 (ip), vehicle: Klucel (hydroxypropylcellulose) (HPC)); 100 % of control (dose: 200.0 mg/kg/injection, schedule: Q04DX003 (ip), vehicle: Klucel (hydroxypropylcellulose) (HPC)); 95 % of control (dose: 400.0 mg/kg/injection, schedule: Q01DX009 (ip), vehicle: Klucel (hydroxypropylcellulose) (HPC)); 90 % of control (dose: 400.0 mg/kg/injection, schedule: Q04DX003 (ip), vehicle: Klucel (hydroxypropylcellulose) (HPC)).

For `Cc1cc(NC(=O)NCc2ccc(N3C(N)=NC(N)=NC3(C)C)cc2)ccc1S(=O)(=O)F`, the T/C reads like this: (dose: 2.1 mg/kg/injection, schedule: Q01DX009 (ip), vehicle: saline with Tween-80) 108 % of control; (dose: 3.1 mg/kg/injection, schedule: Q01DX009 (ip), vehicle: saline with Tween-80) 113 % of control; (dose: 4.8 mg/kg/injection, schedule: Q01DX009 (ip), vehicle: saline) 123 % of control; under setting [15], 172 % of control; (dose: 45.0 mg/kg/injection, schedule: Q04DX003 (ip), vehicle: saline with Tween-80) 150 % of control; under setting [16], 209 % of control. Also, the T/C was 115 % of control (dose: 100.0 mg/kg/injection, schedule: Q04DX003 (ip), vehicle: alcohol); 195 % of control (dose: 264.0 mg/kg/injection, schedule: Q04DX003 (ip), vehicle: saline); 155 % of control (dose: 400.0 mg/kg/injection, schedule: Q04DX003 (ip), vehicle: alcohol).

With `O=c1c2ccccc2[nH]c2cc3c(=O)c4ccccc4[nH]c3cc12`, the T/C is, setting by setting: under setting [5], 99 % of control; under setting [1], 95 % of control; under setting [6], 93 % of control.

As for `NOCc1ccc(CON)cc1`, the T/C reads like this: (dose: 50.0 mg/kg/injection, schedule: Q04DX003 (ip), vehicle: saline) 87 % of control; under setting [11], 91 % of control; under setting [13], 95 % of control.

Regarding `C/C(=C/c1c(C)[nH]c(=O)[nH]c1=O)C(=O)O`, the T/C by setting is: under setting [15], 89 % of control; under setting [16], 89 % of control; under setting [10], 96 % of control; under setting [11], 101 % of control; under setting [12], 105 % of control; under setting [13], 91 % of control. Besides, under setting [14], the T/C is 87 % of control.

Take `CC(C)CSc1nc(N)nc2nc[nH]c12`: the T/C is, setting by setting: under setting [7], 109 % of control; under setting [8], 109 % of control.

The values are drawn from PubChem BioAssay AID328 (DTP/NCI, 2004).
